Assay results published in patent US20230416258A1, “BENZ[…], AND PREPARATION METHOD THEREFOR AND USE THEREOF” (CHINA PHARMACEUTICAL UNIVERSITY, priority 2020, published 2023).

Tested on: KM mice
Assay: Test for drug-induced disappearance of righting reflex in mice
Assay type: in vivo
Conditions: single rapid bolus via tail vein
Description: In anesthetic drug experiments, latency generally refers to the time from the start of administration to the loss of consciousness of the subject. The shorter latency is preferred, indicating a rapid onset of action after administration. The duration of anesthesia generally refers to the duration of time from the loss of consciousness to the restoration of consciousness of the subject. The duration of the drug will vary from animal model to animal species. Too long anesthesia may produce adverse cardiovascular and respiratory responses, such as adverse neurological effects to the subject, including sleepiness and dizziness; meanwhile, too short duration of anesthesia may affect the anesthesia effect, causing problems such as increase of anesthesia dosage during the operation.
KM mice (female, 18-25 g) were randomly grouped and subjected to a single administration by rapid bolus via the tail vein. The latency and duration of disappearance of righting reflex in the mice were recorded.

| Structure (SMILES) | Duration (30 mg/kg) | Latency (30 mg/kg) | Duration (60 mg/kg) | Latency (60 mg/kg) |
| --- | --- | --- | --- | --- |
| CCCSc1nnc2n1-c1ccc([N+](=O)[O-])cc1C(c1ccccc1Cl)=N[C@H]2CCC(=O)OC [Compound 31, methyl (S)-3-(8-nitro-6-(2-chlorophenyl)-1-(propylthio)-4H-benzo[f][1,2,4]triazolo[4,3-a][1,4]diazepin-4-yl)propionate] | 8.98 min | 2.85 min |  |  |
| COC(=O)CC[C@@H]1N=C(c2ccccc2Cl)c2cc(Cl)ccc2-n2c(SC(C)=O)nnc21 [Compound 38, methyl (S)-3-(8-chloro-6-(2-chlorophenyl)-1-(acetylthio)-4H-benzo[f][1,2,4]triazolo[4,3-a][1,4]diazepin-4-yl)propionate] | 12.94 min | 0.67 min |  |  |
| COC(=O)CC[C@@H]1N=C(c2ccccc2Cl)c2cc([N+](=O)[O-])ccc2-n2c(SC(C)=O)nnc21 [Compound 40, methyl (S)-3-(8-nitro-6-(2-chlorophenyl)-1-(acetylthio)-4H-benzo[f][1,2,4]triazolo[4,3-a][1,4]diazepin-4-yl)propionate] | 8.94 min | 0.37 min |  |  |
| CCOC(=O)CC[C@@H]1N=C(c2ccccc2Cl)c2cc(Cl)ccc2-n2c(S)nnc21 [Compound 41, ethyl (S)-3-(8-chloro-6-(2-chlorophenyl)-1-mercapto-4H-benzo[f][1,2,4]triazolo[4,3-a][1,4]diazepin-4-yl)propionate] |  |  | 8.59 min | 0.40 min |
| CCOC(=O)CC[C@@H]1N=C(c2ccccc2Cl)c2cc(Cl)ccc2-n2c(SC)nnc21 [Compound 42, ethyl (S)-3-(8-chloro-6-(2-chlorophenyl)-1-(methylthio)-4H-benzo[f][1,2,4]triazolo[4,3-a][1,4]diazepin-4-yl)propionate] | 4.68 min | 0.65 min |  |  |
| CCOC(=O)CC[C@@H]1N=C(c2ccccc2Cl)c2cc(Br)ccc2-n2c(SC)nnc21 [Compound 43, ethyl (S)-3-(8-bromo-6-(2-chlorophenyl)-1-(methylthio)-4H-benzo[f][1,2,4]triazolo[4,3-a][1,4]diazepin-4-yl)propionate] | 12.38 min | 0.38 min | 7.25 min | 0.84 min |
| CCOC(=O)CC[C@@H]1N=C(c2ccccc2Cl)c2cc([N+](=O)[O-])ccc2-n2c(SC)nnc21 [Compound 44, ethyl (S)-3-(8-nitro-6-(2-chlorophenyl)-1-(methylthio)-4H-benzo[f][1,2,4]triazolo[4,3-a][1,4]diazepin-4-yl)propionate] | 16.27 min | 1.28 min |  |  |
| COC(=O)CC[C@@H]1N=C(c2ccccc2F)c2cc(Cl)ccc2-n2c(SCC3CC3)nnc21 [Compound 45, methyl (S)-3-(8-chloro-1-((cyclopropylmethyl)thio)-6-(2-fluorophenyl)-4H-benzo[f][1,2,4]triazolo[4,3-a][1,4]diazepin-4-yl)propionate] | 11.37 min | 0.65 min |  |  |
| COC(=O)CC[C@@H]1N=C(c2ccccc2F)c2cc(Br)ccc2-n2c(SCC3CC3)nnc21 [Compound 46, methyl (S)-3-(8-bromo-1-((cyclopropylmethyl)thio)-6-(2-fluorophenyl)-4H-benzo[f][1,2,4]triazolo[4,3-a][1,4]diazepin-4-yl)propionate] | 10.83 min | 0.69 min |  |  |
| COC(=O)CC[C@@H]1N=C(c2ccccc2F)c2cc([N+](=O)[O-])ccc2-n2c(SCC3CC3)nnc21 [Compound 47, methyl (S)-3-(8-nitro-1-((cyclopropylmethyl)thio)-6-(2-fluorophenyl)-4H-benzo[f][1,2,4]triazolo[4,3-a][1,4]diazepin-4-yl)propionate] |  |  | 10.52 min | 0.82 min |
| C#CCSc1nnc2n1-c1ccc(Cl)cc1C(c1ccccc1F)=N[C@H]2CCC(=O)OC [Compound 48, methyl (S)-3-(8-chloro-6-(2-fluorophenyl)-1-(prop-2-yn-1-ylthio)-4H-benzo[f][1,2,4]triazolo[4,3-a][1,4]diazepin-4-yl)propionate] |  |  | 8.54 min | 1.25 min |
| C#CCSc1nnc2n1-c1ccc(Br)cc1C(c1ccccc1F)=N[C@H]2CCC(=O)OC [Compound 49, methyl (S)-3-(8-bromo-6-(2-fluorophenyl)-1-(prop-2-yn-1-ylthio)-4H-benzo[f][1,2,4]triazolo[4,3-a][1,4]diazepin-4-yl)propionate] | 9.65 min | 0.73 min |  |  |
| C#CCSc1nnc2n1-c1ccc([N+](=O)[O-])cc1C(c1ccccc1F)=N[C@H]2CCC(=O)OC [Compound 50, methyl (S)-3-(8-nitro-6-(2-fluorophenyl)-1-(prop-2-yn-1-ylthio)-4H-benzo[f][1,2,4]triazolo[4,3-a][1,4]diazepin-4-yl)propionate] | 15.27 min | 0.93 min |  |  |
| CCN(CC)CCSc1nnc2n1-c1ccc(Cl)cc1C(c1ccccc1F)=N[C@H]2CCC(=O)OC [Compound 54, methyl (S)-3-(8-chloro-1-((2-(diethylamino)ethyl)thio)-6-(2-fluorophenyl)-4H-benzo[f][1,2,4]triazolo[4,3-a][1,4]diazepin-4-yl)propionate] | 6.83 min | 0.24 min |  |  |
| CCN(CC)CCSc1nnc2n1-c1ccc(Br)cc1C(c1ccccc1F)=N[C@H]2CCC(=O)OC [Compound 55, methyl (S)-3-(8-bromo-1-((2-(diethylamino)ethyl)thio)-6-(2-fluorophenyl)-4H-benzo[f][1,2,4]triazolo[4,3-a][1,4]diazepin-4-yl)propionate] | 13.84 min | 0.74 min |  |  |
| CCN(CC)CCSc1nnc2n1-c1ccc([N+](=O)[O-])cc1C(c1ccccc1F)=N[C@H]2CCC(=O)OC [Compound 56, methyl (S)-3-(8-nitro-1-((2-(diethylamino)ethyl)thio)-6-(2-fluorophenyl)-4H-benzo[f][1,2,4]triazolo[4,3-a][1,4]diazepin-4-yl)propionate] | 10.22 min | 0.92 min |  |  |
| COC(=O)CC[C@@H]1N=C(c2ccccc2F)c2cc(Cl)ccc2-n2c(SCCCN(C)C)nnc21 [Compound 57, methyl (S)-3-(8-chloro-1-((3-(dimethylamino)propyl)thio)-6-(2-fluorophenyl)-4H-benzo[f][1,2,4]triazolo[4,3-a][1,4]diazepin-4-yl)propionate] |  |  | 5.89 min | 0.31 min |
| COC(=O)CC[C@@H]1N=C(c2ccccc2F)c2cc(Br)ccc2-n2c(SCCCN(C)C)nnc21 [Compound 58, methyl (S)-3-(8-bromo-1-((3-(dimethylamino)propyl)thio)-6-(2-fluorophenyl)-4H-benzo[f][1,2,4]triazolo[4,3-a][1,4]diazepin-4-yl)propionate] | 7.76 min | 0.25 min | 11.17 min | 0.33 min |
| COC(=O)CC[C@@H]1N=C(c2ccccc2F)c2cc(Cl)ccc2-n2c(SCCN3CCN(C)CC3)nnc21 [Compound 60, methyl (S)-3-(8-chloro-6-(2-fluorophenyl)-1-((2-(4-methylpiperazin-1-yl)ethyl)thio)-4H-benzo[f][1,2,4]triazolo[4,3-a][1,4]diazepin-4-yl)propionate] | 12.27 min | 0.49 min |  |  |
| COC(=O)CC[C@@H]1N=C(c2ccccc2F)c2cc(Br)ccc2-n2c(SCCN3CCN(C)CC3)nnc21 [Compound 61, methyl (S)-3-(8-bromo-6-(2-fluorophenyl)-1-((2-(4-methylpiperazin-1-yl)ethyl)thio)-4H-benzo[f][1,2,4]triazolo[4,3-a][1,4]diazepin-4-yl)propionate] | 12.28 min | 0.82 min |  |  |
| COC(=O)CC[C@@H]1N=C(c2ccccc2F)c2cc([N+](=O)[O-])ccc2-n2c(SCCN3CCN(C)CC3)nnc21 [Compound 62, methyl (S)-3-(8-nitro-6-(2-fluorophenyl)-1-((2-(4-methylpiperazin-1-yl)ethyl)thio)-4H-benzo[f][1,2,4]triazolo[4,3-a][1,4]diazepin-4-yl)propionate] |  |  | 10.05 min | 0.86 min |
| COC(=O)CC[C@@H]1N=C(c2ccccc2F)c2cc(Cl)ccc2-n2c(SC3CCN(C)CC3)nnc21 [Compound 63, methyl (S)-3-(8-chloro-6-(2-fluorophenyl)-1-((1-methylpiperidin-4-yl)thio)-4H-benzo[f][1,2,4]triazolo[4,3-a][1,4]diazepin-4-yl)propionate] | 15.25 min | 1.23 min |  |  |
| COC(=O)CC[C@@H]1N=C(c2ccccc2F)c2cc(Br)ccc2-n2c(SC3CCN(C)CC3)nnc21 [Compound 64, methyl (S)-3-(8-bromo-6-(2-fluorophenyl)-1-((1-methylpiperidin-4-yl)thio)-4H-benzo[f][1,2,4]triazolo[4,3-a][1,4]diazepin-4-yl)propionate] |  |  | 14.27 min | 0.99 min |
| COC(=O)CC[C@@H]1N=C(c2ccccc2F)c2cc([N+](=O)[O-])ccc2-n2c(SC3CCN(C)CC3)nnc21 [Compound 65, methyl (S)-3-(8-nitro-6-(2-fluorophenyl)-1-((1-methylpiperidin-4-yl)thio)-4H-benzo[f][1,2,4]triazolo[4,3-a][1,4]diazepin-4-yl)propionate] | 17.25 min | 1.74 min |  |  |
| COC(=O)CC[C@@H]1N=C(c2ccccc2F)c2cc(Cl)ccc2-n2c(SCCCN3CCN(CCO)CC3)nnc21 [Compound 66, methyl (S)-3-(8-chloro-6-(2-fluorophenyl)-1-((3-(4-(2-hydroxyethyl)piperazin-1-yl)propyl)thio)-4H-benzo[f][1,2,4]triazolo[4,3-a][1,4]diazepin-4-yl)propionate] |  |  | 4.27 min | 0.89 min |
